Data taken from ChEMBL document CHEMBL4334438, “Discovery of novel glycogen synthase kinase-3α inhibitors: Structure-based virtual screening, preliminary SAR and biological evaluation for treatment of acute myeloid leukemia” (Eur J Med Chem, 2019).

Tested on: Glycogen synthase kinase-3 alpha (Homo sapiens), P49840 [UNDEFINED MUTATION]
Test: Inhibition of human GSK-3alpha S449A mutant (2 to end residues) at 10 uM using phospho GS2 peptide as substrate after 40 mins in presence of [gamma-33ATP] by scintillation counting method relative to control

Chain of Glycogen synthase kinase-3 alpha (Homo sapiens), P49840 [UNDEFINED MUTATION] (P49840 whole entry, looked up, stated change not applied): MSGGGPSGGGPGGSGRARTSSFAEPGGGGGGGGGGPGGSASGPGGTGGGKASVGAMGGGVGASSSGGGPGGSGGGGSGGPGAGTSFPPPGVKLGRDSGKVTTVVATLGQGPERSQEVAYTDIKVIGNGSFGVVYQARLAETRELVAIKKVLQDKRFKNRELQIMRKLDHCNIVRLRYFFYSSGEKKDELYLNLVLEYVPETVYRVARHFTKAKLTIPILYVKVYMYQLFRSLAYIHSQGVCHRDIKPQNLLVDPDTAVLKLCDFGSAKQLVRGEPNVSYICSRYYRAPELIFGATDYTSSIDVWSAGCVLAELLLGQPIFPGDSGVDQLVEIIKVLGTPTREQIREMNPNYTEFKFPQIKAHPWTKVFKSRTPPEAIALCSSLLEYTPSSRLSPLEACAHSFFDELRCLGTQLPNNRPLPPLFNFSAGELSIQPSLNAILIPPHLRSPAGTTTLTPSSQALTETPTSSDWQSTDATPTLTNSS

For `CC(=O)c1cn(CCCCCCCCCCn2cc(C(C)=O)c(=O)[nH]c2=O)c(=O)[nH]c1=O`, the inhibition was 13%.
`N=C1NC(=O)/C(=C\c2ccc(-c3ccc([N+](=O)[O-])cc3Cl)o2)S1` was tested, and the inhibition was 20%.
`COc1ccc(-c2n[nH]cc2/C=N\NC(=O)c2ccccc2I)cc1OC` gave an inhibition of 44%.
For `COC(=O)c1ccc(-c2ccc(/C=C3\C(=O)NC(=N)N3C)o2)cc1`, the inhibition was 32%.
For `COc1cc(CNc2ccc(CNc3nc[nH]n3)cc2)ccc1OCC(=O)NC(C)(C)C`, the inhibition was 1%.
`COc1ccc([N+](=O)[O-])cc1-c1ccc(/C=C2/S/C(=N\C(C)=O)NC2=O)o1` was tested, and the inhibition was 9%.
With `O=C1NC(=S)N/C1=C/c1ccc(-c2cc([N+](=O)[O-])ccc2Cl)o1` the inhibition was 22%.
`O=C1N/C(=N/Cc2ccccc2)S/C1=C/c1ccc(-c2ccccc2)o1` showed an inhibition of 30%.
With `Cc1c(Cl)cccc1-c1ccc(CNc2nc[nH]n2)o1` the inhibition was 8%.
Compound `Nc1nc(CCCc2n[nH]c(N)n2)n[nH]1` has an inhibition of 16%.
`CCN1C(=O)/C(=C\c2ccc(-c3ccc(Cl)cc3Cl)o2)NC1=S` showed an inhibition of 26%.
Compound `Cc1cc([N+](=O)[O-])ccc1-c1ccc(/C=C2/SC(=N)NC2=O)o1` has an inhibition of 44%.
Work on `NS(=O)(=O)c1ccc(N/C=C2/C(=O)NC(=O)N(c3ccccc3)C2=O)cc1` yielded an inhibition of 17%.
`CCCN1C(=O)/C(=C\c2ccc(-c3ccc(Cl)cc3)o2)NC1=S` was tested, and the inhibition was 17%.
For `N#CC1=C(N)Oc2[nH]nc(-c3cccnc3)c2/C1=C1\C(=O)Nc2ccc(Br)cc21`, the inhibition was 2%.
For `O=C(N/N=C/c1cccnc1)c1cc(-c2cccc3ccccc23)n[nH]1`, the inhibition was 12%.
In the case of `CN1C(=O)/C(=C\c2ccc(-c3cccc(Cl)c3)o2)N(C)C1=S`, the inhibition is reported as 13%.
`COc1cc(/C=C2/C(=O)NC(=O)N(c3ccccc3)C2=O)ccc1O` gave an inhibition of 14%.
`Cc1ccc(Cl)cc1-c1ccc(/C=C2/S/C(=N\c3ccccc3)NC2=O)o1` gave an inhibition of 0%.
Work on `COc1ccc([N+](=O)[O-])cc1-c1ccc(/C=C2/SC(=N)NC2=O)o1` yielded an inhibition of 15%.
With `O=C(CSc1nc2ccccc2[nH]c1=O)Nc1ccc2c(c1)OCO2` the inhibition was 2%.
Compound `O=C1N/C(=N/c2ccccc2)S/C1=C/c1ccco1` has an inhibition of 21%.
In the case of `O=C(O)c1cc(NS(=O)(=O)c2ccc3c4c(cccc24)C(=O)N3)ccc1O`, the inhibition is reported as 15%.
Work on `O=C1NC(=S)NC(=O)C1=Cc1ccc(-c2cc(Cl)ccc2Cl)o1` yielded an inhibition of 26%.
Compound `Cc1cc(C)cc(/N=C2/NC(=O)/C(=C\c3ccc(-c4cccc(Cl)c4)o3)S2)c1` has an inhibition of 10%.
Compound `CCN1C(=O)/C(=C\c2ccc(-c3ccc(C(=O)O)cc3)o2)N(CC)C1=S` has an inhibition of 38%.
`N#Cc1cn(CCCN2CCN(CCCn3cc(C#N)c(=O)[nH]c3=O)CC2)c(=O)[nH]c1=O` showed an inhibition of 2%.
`NC(=O)Cc1nc2sc3c(c2c(=O)[nH]1)CCN(Cc1ccccc1)C3` gave an inhibition of -1%.
`O=C1N/C(=N/c2ccccc2)S/C1=C/c1ccc(-c2ccccc2)o1` gave an inhibition of 23%.
In the case of `CC(=O)/N=C1/NC(=O)/C(=C\c2ccc(-c3ccccc3C(=O)O)o2)S1`, the inhibition is reported as 11%.
With `CC(=O)/N=C1/NC(=O)/C(=C\c2ccc(-c3ccc(C)c(Cl)c3)o2)S1` the inhibition was 21%.
`O=C1N/C(=N/c2ccccc2)S/C1=C/c1ccc(Sc2ccc(Cl)cc2)o1` was tested, and the inhibition was 47%.
`Cc1ccc(OCc2n[nH]c(Nc3ccccc3)n2)cc1` was tested, and the inhibition was 5%.
`Cc1[nH]nc2c1C(c1ccnc3ccccc13)C(C#N)=C(N)O2` (stereo unspecified) showed an inhibition of 6%.
Compound `COc1cc(CNc2nn[nH]n2)ccc1OCC(N)=O` has an inhibition of 1%.
In the case of `N#Cc1ccccc1-c1ccc(C=C2C(=O)NC(=S)NC2=O)o1`, the inhibition is reported as 14%.
For `O=C1NC(=S)N/C1=C/c1ccc(-c2c(Br)cc([N+](=O)[O-])cc2Br)o1`, the inhibition was 42%.
With `N=C1NC(=O)/C(=C\c2ccc(-c3ccc(Cl)c([N+](=O)[O-])c3)o2)S1` the inhibition was 49%.
`O=C1N/C(=N/c2ccccc2)S/C1=C/c1ccc(-c2cccc(C(=O)O)c2)o1` was tested, and the inhibition was 15%.
`O=C(CSc1nnc(CCc2nnc(SCC(=O)c3ccccc3)[nH]2)[nH]1)c1ccccc1` gave an inhibition of 25%.
Compound `O=C(COC(=O)c1cc(O)nc2ccccc12)c1cccc2ccccc12` has an inhibition of 2%.
